This passage reports IC50 results from patent US11021481B2, “Substituted isoindolin-1-ones and 2,3-dihydro-1h-pyrrolo[3,4-c]pyridin-1-ones as HPK1 antagonists” (Nimbus Saturn, Inc., priority 2019, dated 2021).

Sequence of HPK1 (Q92918 whole entry): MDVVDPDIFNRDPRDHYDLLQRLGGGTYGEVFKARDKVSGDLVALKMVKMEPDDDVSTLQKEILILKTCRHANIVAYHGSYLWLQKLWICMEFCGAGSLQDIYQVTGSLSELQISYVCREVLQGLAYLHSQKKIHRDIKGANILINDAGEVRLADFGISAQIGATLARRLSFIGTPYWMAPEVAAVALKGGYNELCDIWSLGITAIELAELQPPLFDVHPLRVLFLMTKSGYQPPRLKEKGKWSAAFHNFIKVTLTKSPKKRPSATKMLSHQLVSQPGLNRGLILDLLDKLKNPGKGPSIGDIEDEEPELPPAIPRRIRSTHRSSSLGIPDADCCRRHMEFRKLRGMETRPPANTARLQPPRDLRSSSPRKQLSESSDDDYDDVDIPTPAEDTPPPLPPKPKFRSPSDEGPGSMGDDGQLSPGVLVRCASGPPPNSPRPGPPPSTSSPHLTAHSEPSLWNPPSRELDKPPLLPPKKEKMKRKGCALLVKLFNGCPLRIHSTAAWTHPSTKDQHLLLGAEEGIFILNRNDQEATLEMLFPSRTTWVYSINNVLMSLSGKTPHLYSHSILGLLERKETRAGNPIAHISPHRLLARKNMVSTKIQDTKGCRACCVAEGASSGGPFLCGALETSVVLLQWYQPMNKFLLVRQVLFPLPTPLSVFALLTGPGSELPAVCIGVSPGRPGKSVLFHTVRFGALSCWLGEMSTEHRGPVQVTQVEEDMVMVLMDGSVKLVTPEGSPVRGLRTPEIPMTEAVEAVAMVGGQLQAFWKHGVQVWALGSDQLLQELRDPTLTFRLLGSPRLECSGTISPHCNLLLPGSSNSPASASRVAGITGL

The target of the test is HPK1 (Homo sapiens (Human), UniProt Q92918). Nature of the test: HPK1 biochemical enzyme assay (microfluidic mobility shift assay). The note with it: 1.5 nM HPK1, ATP 1 mM final, 30 min preincubation, 60 min at RT, Caliper EZ Reader; read-out: HPK1 1000UMATP caliper IC50. An outline of the steps:
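Ten-point compound titrations (top 3 μM final) preincubated 30 min with HPK1 and substrate, then reaction started with 1 mM ATP and 1 μM substrate, 5 mM MgCl2. After 60 min at RT, reaction terminated and product measured by microfluidic mobility shift.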
Regarding `O=C1NCc2c(-c3cnc4ncccn34)ccc(Nc3ccc(N4CCNCC4)cn3)c21` [I-87, 4-imidazo[1,2-a]pyrimidin-3-yl-7-[(5-piperazin-1-yl-2-pyridyl)amino] isoindolin-1-one], the IC50 is less than 100 nM. Consider `O=C1NCc2c(-c3cnc4ccc(C(F)(F)F)cn34)ccc(Nc3ccc(N4CCC(O)CC4)cn3)c21` [I-132], for which the IC50 was greater than 1000 nM. On to `CC(C)(O)[C@@H]1CN(c2ccc(Nc3ccc(-c4cnc5cc(F)ccn45)c4c3C(=O)NC4)nc2)CCO1` [I-344], for which the IC50 is less than 100 nM. As to `Cc1ccn2c(-c3ccc(Nc4ccc(N5CCNCC5)cn4)c4c3CNC4=O)cnc2c1` [I-72, 4-(7-methylimidazo [1,2-a]pyridin-3-yl)-7-[(5-piperazin-1-yl-2-pyridyl)amino] isoindolin-1-one], the IC50 was less than 100 nM. For the compound `C[C@H]1CCn2ncc(-c3ccc(Nc4ccc(N5CCN(C)CC5)cn4)c4c3CNC4=O)c2C1` [I-264, (S)-4-(5-methyl-4,5,6,7-tetrahydropyra-zolo[1,5-a]pyridin-3-yl)-7-((5-(4-methylpiperazin-1-yl)pyridin-2-yl)amino)isoin-dolin-1-one], the IC50 is less than 100 nM.

For the compound `Cn1ccc2c(-c3ccc(Nc4ccc(N5CCNCC5)cn4)c4c3CNC4=O)cccc21` [I-102, 4-(1-methylindol-4-yl)-7-[(5-piperazin-1-yl-2-pyridyl)amino] isoindolin-1-one], the IC50 was less than 100 nM. On to `Cn1ccc2c(-c3ccc(Nc4ccc(N5CCC(O)CC5)cn4)c4c3C(C)(C)NC4=O)ccnc21` [I-282, 7-((5-(4-hydroxypiper-idin-1-yl)pyridin-2-yl)amino)-3.3-dimethyl-4-(1-methyl-1H-pyrrolo[2,3-b]pyridin-4-yl)isoindolin-1-one], for which the IC50 is greater than 1000 nM. Next, `Cn1ccc2c(-c3ncc(Nc4ccc(N5CCC[C@@H](O)C5)cn4)c4c3CNC4=O)ccnc21` [I-178, 7-[[5-[(3R)-3-hydroxy-1-piperidyl]-2-pyridyl]amino]-4-(1-methylpyrrolo [2,3-b]pyridin-4-yl)-2,3-dihydropyrrolo [3,4-c]pyridin-1-one]: less than 100 nM; `O=C1NCc2c(-c3ccnc4ccnn34)ccc(Nc3ccc(N4CCNCC4)cn3)c21` [I-127, 7-[(5-piperazin-1-yl-2-pyridyl)amino]-4-pyrazolo[1,5-a]pyrimidin-7-yl-isoindolin-1-one]: greater than 1000 nM; `O=C1NCc2c(-c3cnc4cc(F)ccn34)ccc(Nc3ccc(C4CCOC4)c(N4CCNCC4)n3)c21` (stereo in doubt) [I-772, (S)-4-(7-fluoroimidazo [1,2-a]pyridin-3-yl)-7-((6-(piperazin-1-yl)-5-(tetrahydrofuran-3-yl)pyridin-2-yl)amino)isoin-dolin-1-one]: less than 100 nM. For `O=C1NCc2c(-c3cnc4cc(F)ccn34)ccc(Nc3cc(C4CCOCC4)[nH]n3)c21` [I-381, 4-(7-fluoroimidazo [1,2-a]pyridin-3-yl)-7-((5-(tetrahydro-2H-pyran-4-yl)-1H-pyrazol-3-yl)amino)isoin-dolin-1-one], the IC50 is less than 100 nM.

Regarding `CCOc1c(C#N)ccn2c(-c3ccc(Nc4ccc(N5CCC(O)CC5)cn4)c4c3CNC4=O)cnc12` [I-185, 8-ethoxy-3-[7-[[5-(4-hydroxy-1-piperidyl)-2-pyripyl]amino]-1-oxo-isoindolin-4-yl]imidazo[1,2-a]pyridine-7-carbonitrile], the IC50 is 100 to 1000 nM. Under `CN1CCN(c2ccc(Nc3ccc(-c4c(F)cnc5c4ccn5C)c4c3C(=O)NC4)nc2)CC1` [I-67, 4-(5-fluoro-1-methyl-pyrrolo[2,3-b]pyridin-4-yl)-7-[[5-(4-methylpiperazin-1-yl)-2-pyridyl]amino] isoindolin-1-one] stands less than 100 nM; under `CN(C[C@H]1CN(c2ccc(Nc3ccc(-c4cnc5cc(F)ccn45)c4c3C(=O)NC4)nc2)CCO1)C1CC1` [I-499, 7-[[5-[(2S)-2-[[cyclopropyl (methyl)amino]methyl]morpholin-4-yl]-2-pyridyl]amino] 4-(7-fluoroimidazo [1,2-a]pyridin-3-yl)isoindolin-1-one], less than 100 nM; under `CNC1CCN(c2ccc(Nc3ccc(-c4cnc5cc(C)ccn45)c4c3C(=O)NC4)nc2)CC1` [I-71, 7-[[5-[4-(methylamino)-1-piperidyl]-2-pyridyl]amino]-4-(7-methylimidazo [1,2-a]pyridin-3-yl)isoindolin-1-one], less than 100 nM. For the compound `O=C1NCc2c(-c3cnc4cc(F)ccn34)ccc(Nc3ccc([C@H]4CCOC4)c(CN4CCCC4)n3)c21` [I-515, (R)-4-(7-fluoroimidazo [1,2-a]pyridin-3-yl)-7-((6-(pyrrolidin-1-ylmethyl)-5-(tetrahydrofuran-3-yl)pyridin-2-yl)amino)isoin-dolin-1-one], the IC50 is less than 100 nM. For `COC[C@@H]1CN(c2ccc(Nc3cnc(-c4ccnc5c4ccn5C)c4c3C(=O)NC4)nc2)CC[C@@H]1O` [I-436, 7-((5-((3S,4S)-4-hydroxy-3-(methoxymeth-yl)piperidin-1-yl)pyridin-2-yl)amino)-4-(1-methyl-1H-pyrrolo[2,3-b]pyridin-4-yl)-2,3-dihydro-1H-pyrrolo[3,4-c]pyridin-1-one], the IC50 was less than 100 nM. As to `O=C1NCc2c(-c3cnc4cc(F)ccn34)ccc(Nc3cccc(O[C@H]4CCC[C@H]4O)n3)c21` (stereo in doubt) [I-354, 4-(7-fluoroimidazo [1,2-a]pyridin-3-yl)-7-((6-(((lR,2S)-2-hydroxycyclopentyl)oxy)pyri-din-2-yl)amino)isoin-dolin-1-one], the IC50 was greater than 1000 nM.

Consider `CN1CCN(c2ccc(Nc3ccc(-c4ccnc5c4CCN5)c4c3C(=O)NC4)nc2)CC1` [I-68, 4-(2,3-dihydro-1H-pyrrolo[2,3-b]pyridin-4-yl)-7-[[5-(4-methylpiperazin-1-yl)-2-pyridyl]amino] isoindolin-1-one], for which the IC50 was less than 100 nM. As to `CN1CC[C@]12CCN(c1cccc(Nc3cnc(-c4ccnc5c4ccn5C)c4c3C(=O)NC4)n1)C2` [I-615, (R)-7-((6-(1-methyl-1.6-diazaspiro[3,4]octan-6-yl)pyridin-2-yl)amino)-4-(1-methyl-1H-pyrrolo[2,3-b]pyridin-4-yl)-2,3-dihydro-1H-pyrrolo[3,4-c]pyridin-1-one], the IC50 is 100 to 1000 nM. Next, `O=C1NCc2c(-c3cnc4cc(F)ccn34)ccc(Nc3ccc([C@H]4CCOC4)c(CN4CC(F)C4)n3)c21` [I-762, (R)-7-((6-((3-fluoroazetidin-1-yl)methyl)-5-(tetrahydrofuran-3-yl)pyridin-2-yl)amino)-4-(7-fluoroimidazo [1,2-a]pyridin-3-yl)isoindolin-1-one]: less than 100 nM; `CN(C)Cc1nc(Nc2ccc(-c3cnc4cc(F)ccn34)c3c2C(=O)NC3)ccc1N1CCC[C@@H](O)C1` [I-524, 7-[[6-[(dimethylamino)-methyl]-5-[(3R)-3-hydroxy-1-piperipyl]-2-pyridyl]amino]-4-(7-fluoroimidazo [1,2-a]pyridin-3-yl)isoindolin-1-one]: less than 100 nM. Next, `CN(C)Cc1nc(Nc2ccc(-c3cnc4cc(F)ccn34)c3c2C(=O)NC3)ccc1S(C)(=O)=O` [I-796, 7-((6-((dimethylamino)-methyl)-5-(methylsulfon-yl)pyridin-2-yl)amino)-4-(7-fluoroimidazo [1,2-a]pyridin-3-yl)isoindolin-1-one]: less than 100 nM. Next, `C[C@@H](c1nc(Nc2ccc(-c3cnc4cc(F)ccn34)c3c2C(=O)NC3)ccc1[C@H]1CCOC1)N(C)C` (single isomer, unassigned) [I-822]: less than 100 nM; `CCNC(=O)c1ccn2c(-c3ccc(Nc4ccc(N5CCOCC5)cn4)c4c3CNC4=O)cnc2c1` [I-207, N-ethyl-3-[7-[(5-morpholino-2-pyridyl)-amino]-1-oxo-isoindolin-4-yl]imidazo[1,2-a]pyridine-7-carboxamide]: 100 to 1000 nM; `Cn1ccc2c(-c3ccc(Nc4ccc(S(C)(=O)=O)cn4)c4c3CNC4=O)ccnc21` [I-106, 4-(1-methylpyrrolo [2,3-b]pyridin-4-yl)-7-[(5-methylsulfonyl-2-pyridyl)amino] isoindolin-1-one]: less than 100 nM.

Take `Cc1nc(Nc2cnc(-c3ccnc4c3ccn4C)c3c2C(=O)NC3)ccc1N1CCN(C)CC1` [I-589, 4-(1-methyl-1H-pyrrolo[2,3-b]pyridin-4-yl)-7-((6-methyl-5-(4-methylpiperazin-1-yl)pyridin-2-yl)amino)-2.3-dihydro-1H-pyrrolo[3,4-c]pyridin-1-one]: the IC50 is less than 100 nM. For the compound “(S)-7-((6- ((dimethylamino)- methyl)-5- (tetrahydrofuran- 3-yl)pyridin- 2-yl)amino)-4- (8-methylimidazo [1,2-a]pyridin- 3-yl)isoindolin- 1-one [I-695]”, the IC50 is less than 100 nM. Under `CN1C[C@H]2CCN(c3cccc(Nc4cnc(-c5ccnc6c5ccn6C)c5c4C(=O)NC5)n3)[C@H]2C1` [I-631, 4-(1-methyl-1H-pyrrolo[2,3-b]pyridin-4-yl)-7-((6-((3aR,6aR)-5-methylhexahy-dropyrrolo[3,4-b]pyrrol-1(2H)-yl)pyridin-2-yl)amino)-2,3-dihydro-1H-pyrrolo[3,4-c]pyridin-1-one] stands greater than 1000 nM; under `Cn1ccc2c(-c3ccc(Nc4ccc(N5CCC(O)CC5)cn4)c4c3CNC4=O)cccc21` [I-161, 7-[[5-(4-hydroxy-1-piperidyl)-2-pyridyl]amino]-4-(1-methylindol-4-yl)isoindolin-1-one], less than 100 nM. Under `O=C1NCc2c(-c3cnc4cc(F)ccn34)ccc(Nc3ccc([C@@H]4CCOC4)c(CN4CC[C@H](F)C4)n3)c21` (stereo in doubt) [I-736] stands less than 100 nM. Under `Cc1ccn2c(-c3ccc(Nc4ccc(N5CCO[C@@H](C(C)(C)O)C5)cn4)c4c3CNC4=O)cnc2n1` [I-646, (R)-7-((5-(2-(2-hydroxypropan-2-yl)morpholino)pyridin-2-yl)amino)-4-(7-methylimidazo [1,2-a]pyrimidin-3-yl) isoindolin-1-one] stands less than 100 nM.

As usually defined, the IC50 is the midpoint of a concentration-inhibition curve.
